Patent publication US20040116489A1, “Synthetic excitatory amino acids” (priority 2003, published 2004)

What was measured:
[1] = target: T1, recombinant mGlu2 receptors (Homo sapiens, UniProt Q14416); test: forskolin-stimulated cAMP accumulation in cells expressing mGlu2; format: cell-based; details: for EC50: agonist: reduces cAMP accumulation to 50% of the controls, read-out: EC50 (nM) ± SEM mGlu2, forskolin-stimulated cAMP accumulation; for IC50: antagonist: blocks agonist induced decrease in forskolin-stimulated cAMP, read-out: IC50 (nM) ± SEM mGlu2, forskolin-stimulated cAMP accumulation
T1 construct: expressed in transfected cells
Protocol: (§1) To study the functional effect of compounds of the present invention in comparison to compounds of U.S. Pat. No. 5,958,960, forskolin stimulated c-AMP production in cells expressing recombinant mGlu2 and mGlu3 receptors was determined. As mGlu2 and mGlu3 receptors are negatively coupled to adenyl cyclase, activity of an agonist decreases forskolin-stimulated accumulation of cyclic adenosine monophosphate (cAMP) and is reported as the concentration necessary to reduce C-AMP accumulation to 50% of the controls (EC50, nM). The activity of an anatgonist blocks the agonist induced decrease in forskolin-stimulated accumulation of cyclic adenosine monophosphate (cAMP) and is reported as the concentration necessary to inhibit the reduction of C-AMP accumulation to 50% of the controls (IC50, nM).

human mGluR3 = target: T2, human mGluR3 (Homo sapiens, UniProt Q14832); test: [3H]LY341495 displacement binding, mGlu3; details: displacement of [3H]LY341495; receptors expressed in RGT cells; read-out: Ki (nM) ± SEM mGlu3, effects on [3H]LY341495 binding
T2 construct: expressed in transfected cells; host or cells: RGT cells
Protocol: (§2) To study the ability to affect receptor binding of compounds of the present invention in comparison to compounds of U.S. Pat. No. 5,958,960, displacement of a high affinity mGluR2 antagonist radioligand [^3H]LY341495 from recombinant human mGluR2 and human mGluR3 receptors expressed in RGT cells was determined.

recombinant human mGluR2 = target: T3, recombinant human mGluR2 (Homo sapiens, UniProt Q14416); test: [3H]LY341495 displacement binding, mGlu2; details: displacement of [3H]LY341495; receptors expressed in RGT cells; read-out: Ki (nM) ± SEM mGlu2, effects on [3H]LY341495 binding
T3 construct: expressed in transfected cells; host or cells: RGT cells
Protocol: as §2

[2] = target: T4, recombinant mGlu3 receptors (Homo sapiens, UniProt Q14832); test: forskolin-stimulated cAMP accumulation in cells expressing mGlu3; format: cell-based; details: for EC50: agonist: reduces cAMP accumulation to 50% of the controls, read-out: EC50 (nM) ± SEM mGlu3, forskolin-stimulated cAMP accumulation; for IC50: antagonist: blocks agonist induced decrease in forskolin-stimulated cAMP, read-out: IC50 (nM) ± SEM mGlu3, forskolin-stimulated cAMP accumulation
T4 construct: expressed in transfected cells
Protocol: as §1

T1 sequence (Q14416 19-872): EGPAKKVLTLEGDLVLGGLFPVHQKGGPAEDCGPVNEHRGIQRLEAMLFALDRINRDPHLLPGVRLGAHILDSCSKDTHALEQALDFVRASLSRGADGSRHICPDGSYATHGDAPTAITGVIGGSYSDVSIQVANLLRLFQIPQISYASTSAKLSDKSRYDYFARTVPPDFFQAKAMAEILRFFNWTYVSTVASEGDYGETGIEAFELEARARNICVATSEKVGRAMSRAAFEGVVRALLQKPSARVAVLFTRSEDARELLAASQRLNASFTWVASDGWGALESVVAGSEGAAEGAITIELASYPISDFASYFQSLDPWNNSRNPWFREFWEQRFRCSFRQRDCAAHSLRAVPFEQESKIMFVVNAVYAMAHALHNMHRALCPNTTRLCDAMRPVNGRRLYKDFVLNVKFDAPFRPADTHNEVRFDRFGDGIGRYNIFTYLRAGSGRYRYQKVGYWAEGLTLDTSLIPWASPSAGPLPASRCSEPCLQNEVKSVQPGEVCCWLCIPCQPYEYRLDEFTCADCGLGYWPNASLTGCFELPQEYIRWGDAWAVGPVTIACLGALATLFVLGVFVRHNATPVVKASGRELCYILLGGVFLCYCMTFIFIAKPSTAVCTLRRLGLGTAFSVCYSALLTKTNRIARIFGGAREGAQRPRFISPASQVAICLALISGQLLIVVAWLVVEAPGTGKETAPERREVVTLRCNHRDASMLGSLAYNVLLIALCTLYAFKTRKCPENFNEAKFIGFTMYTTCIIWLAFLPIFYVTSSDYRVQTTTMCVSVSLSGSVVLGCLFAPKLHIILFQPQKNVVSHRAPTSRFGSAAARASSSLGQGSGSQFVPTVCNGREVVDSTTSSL
T3 sequence (Q14416 19-872): as above
T4 sequence (Q14832 23-879): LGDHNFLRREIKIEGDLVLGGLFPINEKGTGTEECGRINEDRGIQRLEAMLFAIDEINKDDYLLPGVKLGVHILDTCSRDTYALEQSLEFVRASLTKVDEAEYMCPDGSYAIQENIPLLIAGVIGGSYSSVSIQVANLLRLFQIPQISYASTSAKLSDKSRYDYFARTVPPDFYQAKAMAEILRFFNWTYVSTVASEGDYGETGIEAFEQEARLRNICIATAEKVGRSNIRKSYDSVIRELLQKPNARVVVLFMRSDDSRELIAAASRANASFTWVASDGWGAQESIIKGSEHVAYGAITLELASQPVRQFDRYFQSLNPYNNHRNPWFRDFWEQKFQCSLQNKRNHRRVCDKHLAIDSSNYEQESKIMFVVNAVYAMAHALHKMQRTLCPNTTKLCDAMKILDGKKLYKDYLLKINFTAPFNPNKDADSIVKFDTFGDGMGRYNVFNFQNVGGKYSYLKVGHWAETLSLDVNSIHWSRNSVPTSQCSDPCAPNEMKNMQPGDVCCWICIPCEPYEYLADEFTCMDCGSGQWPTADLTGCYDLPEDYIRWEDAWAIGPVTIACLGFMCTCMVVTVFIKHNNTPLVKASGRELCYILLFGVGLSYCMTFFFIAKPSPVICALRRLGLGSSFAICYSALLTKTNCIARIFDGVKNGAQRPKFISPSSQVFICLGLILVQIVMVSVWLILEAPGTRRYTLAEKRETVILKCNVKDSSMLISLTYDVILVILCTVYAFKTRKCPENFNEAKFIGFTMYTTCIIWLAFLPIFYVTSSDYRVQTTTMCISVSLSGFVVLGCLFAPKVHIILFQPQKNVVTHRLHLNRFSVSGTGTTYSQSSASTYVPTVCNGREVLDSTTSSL
T2 sequence (Q14832 23-879): as above

For N[C@@]1(C(=O)O)C[C@H](NC(=O)c2ccccc2)[C@H]2[C@H](C(=O)O)[C@H]21 (relative stereo) [Example 24, (1S*, 2S*, 4S*, 5R*, 6S*) 2-Amino-4-benzoylamino-bicyclo[3.1.0]hexane-2,6-dicarboxylic acid], the EC50 [1] was 60.7 ± 1.03 nM, the Ki (human mGluR3) was 9.54 ± 0.73 nM and the Ki (recombinant human mGluR2) was 511 ± 89 nM. For the same compound, the EC50 [2] was 18.1 ± 2.87 nM.
In the case of CC(=O)N[C@H]1C[C@@](N)(C(=O)O)[C@@H]2[C@@H](C(=O)O)[C@@H]21 (relative stereo) [Example 23, (1S*, 2S*, 4S*, 5R*, 6S*) 4-Acetylamino-2-amino-bicyclo[3.1.0]hexane-2,6-dicarboxylic acid], the EC50 [1] is reported as 1350 nM, the Ki (human mGluR3) is reported as 214 ± 14.6 nM and the Ki (recombinant human mGluR2) is reported as 772 ± 38.8 nM. For the same compound, the EC50 [2] was 1730 nM.
Compound CNC(=O)N[C@H]1C[C@@](N)(C(=O)O)[C@@H]2[C@@H](C(=O)O)[C@@H]21 (relative stereo) [Example 20, (1S*, 2S*, 4S*, 5R*, 6S*) 2-Amino-4-(3-methyl-ureido)-bicyclo[3.1.0]hexane-2,6-dicarboxylic acid] has an EC50 [1] of 426 ± 41.8 nM, a Ki (human mGluR3) of 23 ± 2.6 nM and a Ki (recombinant human mGluR2) of 254 ± 10.7 nM. It also gave an EC50 [2] of 41.1 ± 11.1 nM.
Work on CC(=O)N[C@@H]1C[C@@](N)(C(=O)O)[C@@H]2[C@@H](C(=O)O)[C@@H]21 (relative stereo) [(1S*, 2S*, 4R*, 5R*, 6S*) 4-Acetylamino-2-aminobicyclo[3.1.0]hexane-2,6-dicarboxylic acid] yielded an IC50 [1] of 4300 nM, a Ki (human mGluR3) of 399 ± 67.8 nM and a Ki (recombinant human mGluR2) of 638 ± 59.6 nM. It also gave an IC50 [2] of 11100 nM.
CNC(=O)N[C@@H]1C[C@@](N)(C(=O)O)[C@@H]2[C@@H](C(=O)O)[C@@H]21 (relative stereo) [(1S*, 2S*, 4R*, 5R*, 6S*) 2-Amino-4-(3-methylureido)bicyclo[3.1.0]hexane-2,6-dicarboxylic acid] showed an IC50 [1] of 3220 nM, a Ki (human mGluR3) of 408 ± 25.4 nM and a Ki (recombinant human mGluR2) of 468 ± 29 nM. It also gave an IC50 [2] of 6270 nM.
N[C@@]1(C(=O)O)C[C@@H](NC(=O)c2ccccc2)[C@H]2[C@H](C(=O)O)[C@H]21 (relative stereo) [1S*, 2S*, 4R*, 5R*, 6S*) 2-Amino-4-benzoylaminobicyclo[3.1.0]hexane-2,6-dicarboxylic acid] showed an IC50 [1] of 4060 nM, a Ki (human mGluR3) of 393 ± 17.8 nM and a Ki (recombinant human mGluR2) of 607 ± 10.2 nM. The IC50 [2] was 9520 nM.
